Assay results reported in PubChem BioAssay (NCI).
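How tested: cells in 96-well plates exposed to compound for 48 hours at five concentrations. At the GI50, growth is halved. At the TGI there is no net growth.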

Experiments:
Assay in all cases: DTP human tumour cell line panel, 48 h
[1] = test system: ACHN renal
[2] = test system: DU-145 prostate
[3] = test system: OVCAR-8 ovarian
[4] = test system: HOP-92 NSCLC
[5] = test system: HL-60(TB) leukemia
[6] = test system: UO-31 renal
[7] = test system: U251 CNS
[8] = test system: UACC-62 melanoma
[9] = test system: HCC-2998 colon
[10] = test system: NCI-H460 lung
[11] = test system: MALME-3M melanoma
[12] = test system: COLO 205 colon
[13] = test system: OVCAR-4 ovarian
[14] = test system: A498 renal
[15] = test system: SF-268 CNS
[16] = test system: NCI/ADR-RES ovarian
[17] = test system: RXF 393 renal
[18] = test system: KM12 colon
[19] = test system: NCI-H23 lung
[20] = test system: RPMI-8226 leukemia
[21] = test system: HCT-116 colon
[22] = test system: SK-MEL-5 melanoma
[23] = test system: SW-620 colon
[24] = test system: SN12C renal
[25] = test system: SF-539 CNS
[26] = test system: SR leukemia
[27] = test system: SK-MEL-2 melanoma
[28] = test system: PC-3 prostate
[29] = test system: MDA-MB-231 breast
[30] = test system: HCT-15 colon
[31] = test system: UACC-257 melanoma
[32] = test system: MCF7 breast
[33] = test system: EKVX NSCLC
[34] = test system: IGROV1 ovarian
[35] = test system: HS 578T breast
[36] = test system: HOP-62 NSCLC
[37] = test system: MDA-MB-435
[38] = test system: SK-MEL-28 melanoma
[39] = test system: SF-295 CNS
[40] = test system: NCI-H522 lung
[41] = test system: TK-10 renal
[42] = test system: CAKI-1 renal
[43] = test system: M14 melanoma
[44] = test system: A549 NSCLC
[45] = test system: T-47D breast
[46] = test system: BT-549 breast
[47] = test system: OVCAR-3 ovarian
[48] = test system: SK-OV-3 ovarian
[49] = test system: NCI-H226 lung
[50] = test system: OVCAR-5 ovarian
[51] = test system: LOX IMVI melanoma
[52] = test system: K-562 leukemia
[53] = test system: SNB-75 CNS

O=c1ccc2nc(C(F)(F)F)nn(-c3ccccc3)c-2c1
GI50 [1]: 1.18 µM | TGI [1]: 2.45 µM | GI50 [2]: 1.77 µM | TGI [2]: 3.17 µM | GI50 [3]: 4.21 µM | TGI [3]: 33.9 µM | GI50 [4]: 1.41 µM | TGI [4]: 2.97 µM | GI50 [5]: 1.21 µM | TGI [5]: 4.31 µM | GI50 [6]: 1.48 µM | TGI [6]: 2.9 µM | GI50 [7]: 13.4 µM | TGI [7]: 28.6 µM | GI50 [8]: 5.13 µM | TGI [8]: 17.9 µM | GI50 [9]: 15.4 µM | TGI [9]: 29.7 µM | GI50 [10]: 17.6 µM | TGI [10]: 36.2 µM | GI50 [11]: 1.82 µM | TGI [11]: 3.3 µM | GI50 [12]: 2.32 µM | TGI [12]: 5.77 µM | GI50 [13]: 1.47 µM | TGI [13]: 2.83 µM | GI50 [14]: 14.1 µM | TGI [14]: 27.2 µM | GI50 [15]: 15 µM | TGI [15]: 28.9 µM | GI50 [16]: 17.1 µM | TGI [16]: 64 µM | GI50 [17]: 1.45 µM | TGI [17]: 2.8 µM | GI50 [18]: 19.6 µM | TGI [18]: 37.3 µM | GI50 [19]: 5.96 µM | TGI [19]: 22.2 µM | GI50 [20]: 4.82 µM | TGI [20]: 77.5 µM | GI50 [21]: 1.61 µM | TGI [21]: 3.15 µM | GI50 [22]: 7.8 µM | TGI [22]: 21.1 µM | GI50 [23]: 1.75 µM | TGI [23]: 3.71 µM | GI50 [24]: 7.31 µM | TGI [24]: 57.4 µM | GI50 [25]: 15.8 µM | TGI [25]: 29.3 µM | GI50 [26]: 0.999 µM | TGI [26]: > 100 µM | GI50 [27]: 3.63 µM | TGI [27]: 15.6 µM | GI50 [28]: 10.7 µM | TGI [28]: 23.7 µM | GI50 [29]: 1.92 µM | TGI [29]: 5.55 µM | GI50 [30]: 1.45 µM | TGI [30]: 3.42 µM | GI50 [31]: 1.91 µM | TGI [31]: 4.05 µM | GI50 [32]: 0.495 µM | TGI [32]: 4.07 µM | GI50 [33]: 13.6 µM | TGI [33]: 27.1 µM | GI50 [34]: 11.9 µM | TGI [34]: 25.5 µM | GI50 [35]: 12.2 µM | TGI [35]: 80.4 µM | GI50 [36]: 7.95 µM | TGI [36]: 27.7 µM | GI50 [37]: 4.56 µM | TGI [37]: 16.4 µM | GI50 [38]: 1.7 µM | TGI [38]: 3.26 µM | GI50 [39]: 22.7 µM | TGI [39]: 67.1 µM | GI50 [40]: 1.51 µM | TGI [40]: 3.01 µM | GI50 [41]: 1.62 µM | TGI [41]: 3.09 µM | GI50 [42]: 1.47 µM | TGI [42]: 2.8 µM | GI50 [43]: 5.8 µM | TGI [43]: 19 µM | GI50 [44]: 19.3 µM | TGI [44]: 39 µM | GI50 [45]: 1.69 µM | TGI [45]: 6.62 µM | GI50 [46]: 12.3 µM | TGI [46]: 24.8 µM | GI50 [47]: 1.58 µM | TGI [47]: 2.95 µM | GI50 [48]: 15 µM | TGI [48]: > 100 µM | GI50 [49]: 13.1 µM | TGI [49]: 30.5 µM | GI50 [50]: 15.4 µM | TGI [50]: 29.1 µM | GI50 [51]: 1.59 µM | TGI [51]: 3.22 µM | GI50 [52]: 2.11 µM | TGI [52]: 9.14 µM | GI50 [53]: 13.3 µM | TGI [53]: 26.4 µM
